Measurements taken from paper PMC8244865, “Recruitment of phospholipase Cγ1 to the non-structural membrane protein pK15 of Kaposi Sarcoma-associated herpesvirus promotes its Src-dependent phosphorylation” (PLoS Pathogens, 2021).

How the values were obtained:
[1] = test system: PLCγ1 cSH2 domain (in tSH2 aa 545–772); experiment: crystal structure with truncated PLCγ1 tSH2, cSH2 site; format: binding; conditions: truncated tSH2 (aa 545–772), resolution 2.1 Å
Experimental: A shortened version of the PLCγ1 tSH2 domain (aa 545–772) lacking the linker peptide connecting the PLCγ1 cSH2 and SH3 domains (see Results section) was cloned into a pET28a vector carrying an N-terminal His Tag and a SUMO sequence. Expression was carried out in E. coli and the protein was purified to homogeneity as described above. His-Tag and SUMO were proteolytically removed using SUMO protease (SIGMA) following the manufacturer’s instructions, and the cleaved protein purified on a HisTrap column. Fractions containing cleaved protein were further purified by size exclusion chromatography (SEC) using a Superdex 75 26/600 column (GE Healthcare) equilibrated with 50mM Tris pH7.5, 150mM NaCl and 1mM TCEP buffer. The purified protein in SEC buffer was added to lyophilized phosphorylated 12mer pK15 peptide (DDLpYEEVLFPRN) in a 1:8 molar ratio (Protein: peptide) at a final concentration of 3mg/ml of peptide and 7.5mg/ml protein. Crystals were grown at 293 K using the sitting-drop vapor diffusion method in drops containing 1μl protein solution mixed with 1 μL reservoir solution containing 30% PEG 4000, 0.1M TrisHCl pH 8.5 and 0.2M sodium acetate. The crystals were flash frozen in the mother liquor containing 30% ethylene glycol and diffraction data were collected at P13 at DESY-Hamburg. Data were processed, scaled and reduced with XDS [75], Pointless and programs from the CCP4 suite. […]

[2] = test system: PLCγ1 (transfected and endogenous, HEK-293T lysates); experiment: GST-pulldown, full length PLCγ1; format: binding; conditions: in vitro phosphorylated by Src; transfected and endogenous PLCγ1, HEK 293 lysates; Western blot
Experimental: Fig 2 K15 phosphorylation results in a stronger binding to PLCγ1. (A) An expression plasmid for an S-tagged full length PLCγ1 or the empty vector (EV) were transfected in HEK-293T cells. After 30h cells were lysed and a GST-pulldown assay was performed with GST-fused pK15 CT (WT), the pK15 CT Y^481F mutant (Y^481F) or GST that had been bound to glutathione beads and previously phosphorylated by GST-6xHis Src (+) or left unphosphorylated (-). Bound proteins were analysed by WB using antibodies to the S tag on PLCγ1 and pTyr. (B) Untransfected HEK-293T cells were lysed and a GST-pulldown assay with pre-phosphorylated (+) or unphosphorylated (-) GST-fused pK15 CT WT/Y^481F or GST was performed and analysed by WB as in (A). (C) An expression plasmid for an S-tagged PLCγ1 SA or the empty vector were transfected in HEK-293T cells. […]
HEK293T cells were washed once with cold PBS 30 hours after transfection, lysed in IP buffer (50 mM Tris pH7.6, 60 mM NaCl, 6.25 mM EDTA, 1% (v/v) glycerol, 0.04% (v/v) NP-40) on ice for 30 minutes, sonicated shortly and cleared by centrifugation for 10 minutes at 20.000g, 4°C. […] Beads were then washed 5 times in 500 μl IP buffer (or for purified proteins IP buffer with 200 mM NaCl), suspended in 10 μl of 5x Laemmli sample buffer (60 mM Tris pH6.8, 24% (v/v) glycerol, 2% (v/v) SDS, 5% (v/v) β-mercaptoethanol, 0.01% Bromphenol Blue) and analysed by western blot.

Row | Molecule | binding site occupancy in crystal structure [1] | interaction with PLCγ1 (GST-pulldown) [2]
1 | DDLpYEEVLFPRN [pK15 12mer, phosphorylated peptide representing the last 12 amino acids of pK15 CT (DDLp…)] | unambiguously bound to the PLCγ1 cSH2 domain | –
2 | pK15 CT^WT: pK15 cytoplasmic tail fused to GST at its N-terminal end, phosphorylated in vitro by Src (protein, tyrosine-phosphorylated in vitro by Src; sites not stated for this construct; left off: GST, N-terminal, kept) SQLLNEVELQEVNRDPPNVFGYASILVSGAEESREPSPQPDQSGMSILRVDGGSAFRIDTAQAATQPTDDLYEEVLFPRN | – | substantial increase in its interaction with PLCγ1
